Reference: PubChem BioAssay AID2060503 (Molecular Pharmacology Branch, DTP, NCI, 2025)
Where “and” joins values, the source holds several entries; their conditions need not be identical. Identical values can stand only once.

System: 817829-284-R-J1-PDC complex spheroids, viability
Assay: Anticancer human tumor 817829-284-R-J1-PDC patient-derived colon adenocarcinoma cell line growth inhibition [GQUAD]
Details: for viability, T/C: stronger effect = lower value
Description: DNA G-quadruplex Stabilizer Agents in Combinations in Complex Spheroids
A high-throughput screen of multi-cell type tumor spheroids was designed to identify active combinations of DNA G-quadruplex stabilizer agents and targeted small molecules. Complex spheroids include a stromal component modeled by human endothelial cells (HUVEC) and fibroblasts modeled by human mesenchymal stem cells (MSCs). The concentration ranges selected for each drug and investigational agent were based upon clinically achievable concentrations if the clinical Cmax of the agent was known.
Compounds. The drugs and investigational agents: pidnarulex (CX-5461; NSC782164), APTO-253 (NSC789042), BRACO-19 (NSC847499), peposertib (NSC802822), ceralasertib (NSC780249), elimusertib (NSC800525), camonsertib (NSC841442), AZD-1390 (NSC803789), olaparib (NSC753686), talazoparib (NSC767125), ART-558 (NSC835418), sotorasib (NSC818433), MRTX-1133 (NSC836407), SN-38 (NSC673596), topotecan (NSC609699), etoposide (NSC141540), doxorubicin (NSC123127), gemcitabine (NSC613327), 5-fluorouracil (NSC19893), paclitaxel (NSC125973), vemurafenib (NSC761431), panobinostat (NSC761190), R-306465 (JNJ-16241199; NSC773264), adavosertib (NSC754352), TP-3654 (NSC805149), carboplatin (NSC241240), KSQ-4279 (NSC840948), and staurosporine (NSC755774) were obtained from the National Cancer Institute (NCI) Developmental Therapeutics Program Chemical Repository (34). The FDA-approved anticancer drug set is available from the NCI Developmental Therapeutics Program. […] The stock solutions were prepared in dimethyl sulfoxide (DMSO, Sigma-Aldrich, St. Louis, MO, cat. D2650) at 800-fold the tested concentration and stored at -70 degrees C prior to their use. All drugs and investigational agents were tested over a range starting from a high concentration at or near the clinical Cmax and decreasing in half-log increments. If the clinical Cmax for an agent had not been determined, the highest concentration tested was 10 microM.
2.3 Cell Culture. All cells were maintained in an incubator at 37 degrees C and 5% CO2 with 95% humidity. The PDC lines were cultured according to standard operating procedures established by the NCI PDMR. All PDCs were thawed and cultured in Matrigel-coated flasks prepared with a working solution of 1X Ham's F-12 nutrient mix, without supplementation (Invitrogen, cat. 11765054), 100 U/mL penicillin-streptomycin (Invitrogen, cat. 15140122), and 2.5% Matrigel (Corning Inc., cat. 354248) for the first three passages. The 857933-349-R-J2-PDC line was cultured in 6C/Colon 1B media, which includes advanced DMEM/F-12 (Thermo Fisher Scientific, cat. 12634028), 10 mM HEPES (Thermo Fisher Scientific, cat. 15630080), 1X GlutaMAX supplement (Thermo Fisher Scientific, cat. 35050061), 0.1 mg/mL primocin (InvivoGen, cat. ant-pm-2), 10% defined fetal bovine serum, heat inactivated (HyClone Laboratories Inc., cat. SH30070.03HI), 50% L-WRN conditioned media (ATCC, cat. CRL-3276), 1.25 mM N-Acetyl-L-cysteine (Sigma-Aldrich, cat. A9165), 10 mM nicotinamide (Sigma-Aldrich, cat. N0636), 1X B-27 supplement (Thermo Fisher Scientific, cat. 17504044), 1X N-2 supplement (Thermo Fisher Scientific, cat. 17502048), 10 microM Y-27632 dihydrochloride (Tocris Bioscience, cat. 1254), and 50 ng/mL human EGF recombinant protein (Thermo Fisher Scientific, cat. PHG0311). The 485176-168-R4-J1-PDC line was cultured in Panc media, which includes all 6C/Colon 1B media components plus 100 ng/mL human FGF-10 (Thermo Fisher Scientific, cat. 100-26), 500 nM SB-431542 (Selleckchem, cat. S1067), and gastrin (Tocris, cat. 3006).
[…]

[1] = compound alone, run of 02/20/2024
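Also: spheroids exposed to agents for 7 days before readout.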
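For viability, T/C in this document: percent viability relative to DMSO vehicle control taken as 100%.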

| SMILES | viability, T/C (compound 0.0316 µM) | viability, T/C (compound 0.1 µM) | viability, T/C (compound 0.316 µM) | viability, T/C (compound 1 µM) | viability, T/C (compound 3.16 µM) | viability, T/C (compound 10 µM) | IC50 (curve of compound) | IC50 [1] | viability, T/C (compound 0.000999 µM) | viability, T/C (compound 0.00316 µM) | viability, T/C (compound 0.00999 µM) | viability, T/C (compound 0.0999 µM) |
| --- | --- | --- | --- | --- | --- | --- | --- | --- | --- | --- | --- | --- |
| COc1cc(C2c3cc4c(cc3C(OC3OC5COC(C)OC5C(O)C3O)C3COC(=O)C23)OCO4)cc(OC)c1O (stereo not drawn) | 115% and 98.4% and 91% | 62% and 67.7% and 92.4% | 29.3% and 26.7% and 34.1% | 26.2% and 28.1% and 42.2% | 22.6% and 26.7% and 29.9% | 10.5% and 9.2% and 10.2% | 0.159 µM and 0.166 µM and 0.23 µM | – | – | – | – | – |
| COc1ccc([C@@H](O)c2cc(-c3ncnc4cc(N5CCOCC5)ccc34)c(F)cc2Cl)nn1 | 103% and 96.1% and 90.7% | 90.9% and 95.3% and 105% | 106% and 104% and 100% | 80.6% and 84.1% and 83.6% | 84.3% and 82.3% and 64.7% | 53.4% and 67.6% and 39.1% | > 10 µM and 6.03 µM | – | – | – | – | – |
| COc1cccc2c1C(=O)c1c(O)c3c(c(O)c1C2=O)CC(O)(C(=O)CO)CC3OC1CC(N)C(O)C(C)O1 (stereo not drawn) | 100% and 82% and 106% | 32.7% and 42.4% and 30.9% | 30.1% and 39% and 26.2% | 9.58% and 10.5% and 8.06% | 0.57% and 0.58% and 0.61% | 0.32% and 0.4% and 0.19% | 0.0847 µM and 0.0991 µM and 0.0821 µM | – | – | – | – | – |
| COc1ncnc(C2CC2)c1-c1ncc2cnn(Cc3ccc(-c4nc(C(F)(F)F)cn4C(C)C)cc3)c2n1 | 96.6% and 97.8% and 103% | 97.4% and 111% and 113% | 99.2% and 107% and 110% | 84.8% and 117% and 106% | 102% and 106% and 111% | 116% and 114% and 115% | > 10 µM | – | – | – | – | – |
| Cc1[nH]c2ccc(F)cc2c1-c1nc2c3cccnc3c3ncccc3c2[nH]1 | – | 103% [middle of 12 runs] | 106% [middle of 12 runs] | 99.8% [middle of 12 runs] | – | – | – | 3.3 µM [middle of 8 runs] | – | – | – | – |
| Cc1[nH]c2ccccc2c1CCNCc1ccc(/C=C/C(=O)NO)cc1 | 73% and 78.2% and 52.8% | – | 0.17% and 0.23% and 0.08% | – | – | – | 0.0458 µM and 0.0488 µM and 0.0337 µM | – | 110% and 93.9% and 106% | 101% and 100% and 86.5% | 127% and 124% and 113% | 3.77% and 5.53% and 6.09% |
| Cc1cccc(N(C)C(=O)C2C(O)CCN2c2nc(C)cc(C(F)(F)F)c2C#N)c1 (stereo not drawn) | 94.3% and 102% and 95.3% | 97.8% and 81.6% and 93.5% | 92.5% and 107% and 96.8% | 88.1% and 99% and 82.6% | 92.4% and 88.4% and 96.7% | 96.7% and 83.4% and 98.1% | > 10 µM | – | – | – | – | – |
| Cc1cnc(CNC(=O)c2c(=O)c3ccc(N4CCCN(C)CC4)nc3n3c2sc2ccccc23)cn1 | 90.4% [middle of 12 runs] | 39.5% [middle of 12 runs] | 29.2% [middle of 12 runs] | 23.6% [middle of 12 runs] | 15.9% [middle of 12 runs] | 0.15% [middle of 8 runs] | – | 85.8 nM [middle of 11 runs] | – | – | – | – |
| Cn1ncnc1[C@H]1c2n[nH]c(=O)c3cc(F)cc(c23)N[C@@H]1c1ccc(F)cc1 | 91.3% and 82.8% and 82% | – | 72.2% and 75.2% and 66.5% | – | – | – | > 0.316 µM | – | 111% and 90.3% and 92.1% | 86.5% and 83.5% and 92.8% | 106% and 112% and 101% | 83.5% and 82.1% and 84% |
| Nc1ccn(C2OC(CO)C(O)C2(F)F)c(=O)n1 (stereo not drawn) | 24.6% and 9.45% and 15.3% | 5.55% and 8% and 4.56% | 7.44% and 8.2% and 6.55% | 5.74% and 7.67% and 5.48% | 6.14% and 6.82% and 5.88% | 3.68% and 3.93% and 3.72% | < 0.0316 µM | – | – | – | – | – |
| O=C(NO)c1cnc(N2CCN(S(=O)(=O)c3ccc4ccccc4c3)CC2)nc1 | 114% and 111% and 117% | 17.6% and 102% and 59% | 0.33% and 5.46% and 5.25% | 0.17% and 0.29% and 0.13% | 0.1% and 0.26% and 0.04% | 0.15% and 0.25% and 0.07% | 0.0679 µM and 0.186 µM and 0.121 µM | – | – | – | – | – |
| O=C(c1cc(Cc2n[nH]c(=O)c3ccccc23)ccc1F)N1CCN(C(=O)C2CC2)CC1 | 113% and 106% and 116% | 87.2% and 96.7% and 103% | 103% and 99% and 90.6% | 91% and 94.4% and 89.3% | 89.1% and 97.4% and 95.1% | 57.6% and 60.7% and 49% | > 10 µM | – | – | – | – | – |
| O=c1[nH]cc(F)c(=O)[nH]1 | 97.6% and 102% and 99.2% | 94.3% and 91.8% and 102% | 127% and 111% and 106% | 59.1% and 63.2% and 70.3% | 39.4% (2×) and 42.5% | 30.5% and 32.8% and 30.7% | 1.54 µM and 1.75 µM and 2.14 µM | – | – | – | – | – |
